Patent US8652231B2, “Metal complexes; use thereof for the preparation of compositions for agricultural use” (Timac Argo International, priority 2008, dated 2014)

Assay: Capacity of the test compounds for keeping iron soluble in the presence of calcium
Format: physicochemical
Settings: 20 mg iron per liter, pH 7, 8, 9 and 10, CaCl2 0.020 M, after three days, filtered; FIG. 1
Method: For each product tested, four solutions were prepared containing 20 milligrams of iron per liter and having respectively a pH of 7, 8, 9 and 10 (the pH having been adjusted with sodium hydroxide or hydrochloric acid).
Four similar solutions were prepared, each containing calcium chloride CaCl2 (0.020 M).
After three days, these solutions were filtered through filters with a pore size of 0.045 micrometer and the iron content in the […] was determined by inductively coupled plasma emission optical spectroscopy (ICP-EOS).
The amount of iron remaining in solution in the presence of calcium ions was calculated using the following formula:
[formula] in which: [Fe]pHi+Ca represents the concentration of iron in the filtrate from a solution (containing calcium chloride 0.020 M) with pH equal to i, expressed in milligrams per liter; [Fe]pHi represents the concentration of iron in the filtrate from a solution not containing calcium with pH equal to i, expressed in milligrams per liter. Results

**Q.** With Citrate-Fe(III) Complex as the substance, how does the “iron remaining in solution in the presence of calcium ions” value read?
**A.** Its value is “undergoes precipitation in the range of pH between the values of 9 and 10”.
